Earlier results as cited in patent publication US10434213B2, “Controlled delivery system” (Wake Forest University Health Sciences, priority 2010, dated 2019).
Values after ≈ are worked out from the molar mass of the structure shown.

What was measured:
[1] = tested on: colon cancer and melanoma cancers; conditions: combined with interferon, in vivo
tumor cells = conditions: in vitro
bone marrow = conditions: White and Olden 1991
[2] = tested on: IL-1, IL-2, TNF, GM-CSF and interferons; conditions: Newton 1989; Olden 1991
S. aureus 29213 = conditions: reported value

Row | Compound | Anti-tumor activity [1] | B- and T-cell immunity, natural killer T-cell and macrophage-induced destruction of tumor cells (tumor cells) | Bone marrow proliferation (bone marrow) | Production of multiple cytokines [2] | Minimum inhibitory concentration (MIC) (S. aureus 29213) [µg/mL]
1 | O[C@H]1[C@H]2[C@H](O)CCCN2C[C@H]1O [Swainsonine] | direct anti-tumor activity | induces | capacity to stimulate bone marrow proliferation | stimulates | 
2 | O=C(O)c1cn(C2CC2)c2cc(N3CCNCC3)c(F)cc2c1=O [ciprofloxacin] |  |  |  |  | 0.25 (≈ 0.754 µM)
